Data on 1 compound can be found in paper PMC5182053 (Science Advances, 2016).

The assay concerns the target α-enolase (Homo sapiens, UniProt P06733). Description: microscale thermophoresis with labeled recombinant protein. It counts as binding. For orientation: Microscale thermophoresis detects binding through changes in fluorescence in a small temperature gradient.

Chain of α-enolase (P06733 2-434): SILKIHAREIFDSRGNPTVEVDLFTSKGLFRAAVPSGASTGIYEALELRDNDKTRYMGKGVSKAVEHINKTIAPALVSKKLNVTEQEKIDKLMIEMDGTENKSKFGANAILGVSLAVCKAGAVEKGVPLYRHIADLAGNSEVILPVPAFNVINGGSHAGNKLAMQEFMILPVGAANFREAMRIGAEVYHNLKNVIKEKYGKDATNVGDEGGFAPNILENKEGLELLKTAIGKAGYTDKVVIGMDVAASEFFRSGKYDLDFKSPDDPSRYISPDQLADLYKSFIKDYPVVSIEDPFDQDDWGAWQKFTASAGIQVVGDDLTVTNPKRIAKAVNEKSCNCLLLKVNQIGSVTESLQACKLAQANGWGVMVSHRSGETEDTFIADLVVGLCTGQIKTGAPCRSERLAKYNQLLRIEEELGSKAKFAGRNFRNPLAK

As for `CCOC(=O)Oc1c(OC)cc(C(=O)O[C@@H]2C[C@@H]3CN4CCc5c([nH]c6cc(OC)ccc56)[C@H]4C[C@@H]3[C@H](C(=O)OC)[C@H]2OC)cc1OC` [syrosingopine], the Kd (in general, the equilibrium constant for the complex coming apart) was found to be 1.25 µM.
